Literature values, collected in patent publication EP0713864A1, “Substituted benzoylguanidines, process for their preparation, their use as medicament of diagnostic agent as well as medicaments containing them” (HOECHST AKTIENGESELLSCHAFT, priority 1994, dated 1996).

System: Kammerflimmern
Details: isolated rat hearts; Eur. Heart J. 9 (suppl.1): 167 (1988)

SMILES | Unterdrückung eines künstlich ausgelösten Kammerflimmerns
N=C(N)NC(=O)c1nc(Cl)c(N)nc1N [Amilorid] | völlig unterdrückt
CCN(c1nc(N)c(C(=O)NC(=N)N)nc1Cl)C(C)C [Ethylisopropylamilorid] | Noch potenter als Amilorid
